Assay in all cases: NCI-60 cell line screen, 48 h
Assay [1] has as its system CCRF-CEM leukemia.
Assay [2] deals with SK-OV-3 ovarian.
Assay [3] has as its system HT29 colon.
Assay [4] relates to A549 NSCLC.
For assay [5], the system named is NCI-H23 lung.
For assay [6], the system named is NCI-H522 lung.
For assay [7], the system named is UACC-62 melanoma.
Assay [8] has as its system OVCAR-3 ovarian.
The subject of assay [9] is MCF7 breast.

“And” between values parts separate entries of the source, which are not always exact repeats. Equal values may be shown once.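 Each compound was tested at five concentrations against cells in 96-well plates for 48 hours. GI50 = concentration required for 50% inhibition of growth. TGI: concentration producing complete growth inhibition.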

Data on 17 molecules can be found in PubChem BioAssay (NCI).

Consider `COC(=O)C(/C(=N\NC(N)=S)C(=O)Nc1ccccc1[N+](=O)[O-])c1cnc2ccccc2n1` (configuration not stated), for which the TGI in assay [1], in [2], in [3], in [4], in assay [5] and in assay [6] was greater than 100 µM in each case. The molecule also returned a TGI in assay [7] greater than 100 µM.

`CCCCCCCCCCCCCB(O)O`: the TGI in assay [1], in assay [2], in assay [3], in [4], in assay [5] and in [6] was greater than 100 µM in each case. The TGI in assay [8] and in [7] was greater than 100 µM throughout. Besides, the GI50 in [3] was > 100 µM and 29.9 µM; in assay [4] it was > 100 µM and 48.5 µM.

Turning to `CCOCc1cc(=O)c2c(OC)cc3c(c2o1)CCC(C)(C)O3`, the TGI in [1], in [2], in [3], in [4], in assay [5] and in [6] was greater than 100 µM each time. Besides, the TGI in assay [8] and in assay [7] was greater than 100 µM throughout.

On to `O=C1C2C3C=CC(C2C(=O)N1CN1CCSCC1)C1C2C(=O)N(CN4CCSCC4)C(=O)C2C31` (configuration not stated), for which the GI50 in [1] was 35.1 µM; in assay [4], 77.1 µM; in [6] it was 82.3 µM; in assay [9], 69.1 µM. For the same molecule, the TGI in assay [1], in assay [2], in assay [3], in assay [4], in assay [5] and in assay [6] was greater than 100 µM in each case. The TGI in assay [8] and in assay [7] was greater than 100 µM throughout.

Consider `c1ccc2c(NCCCCCCNc3cccc4ccccc34)cccc2c1`, for which the TGI in assay [1], in assay [2], in [3], in assay [4], in assay [5] and in [6] was greater than 100 µM throughout. In addition, the TGI in assay [8] and in assay [7] was greater than 100 µM throughout.

Turning to `COC(=O)C(=O)C(C(=O)C(=O)Nc1cc(C)ccc1C)c1nc2ccc(C(=O)c3ccccc3)cc2[nH]c1=O` (configuration not stated), the TGI in assay [1], in [4], in assay [5], in [6] and in assay [7] was greater than 100 µM each time.

As for `CCCCN(CCCC)CCCn1cnc2ncccc2c1=O`, the TGI in [1], in assay [2], in assay [3], in assay [4], in [5] and in [6] was greater than 100 µM in each case. Moreover, the TGI in assay [8] and in [7] was greater than 100 µM in each case.

`Cc1ccc2nc(NC(=O)/C(=N\NC(=S)NN)C3C(=O)NC(=S)NC3=O)sc2c1`: the TGI in [1], in [2], in [3], in assay [4], in assay [5] and in assay [6] was greater than 100 µM throughout. The TGI in [7] is greater than 100 µM.

For the molecule `Cn1cnc([N+](=O)[O-])c1Sc1nccc(=O)[nH]1`, the TGI in assay [1], in assay [2], in assay [3], in assay [4], in assay [5] and in [6] was greater than 100 µM in each case. Moreover, the TGI in assay [8] and in assay [7] was greater than 100 µM each time.

Consider `CCOC(=O)C1(Br)S(=O)(=O)OCCOS1(=O)=O`, for which the TGI in assay [1], in assay [2], in assay [3], in assay [4], in assay [5] and in assay [6] was greater than 100 µM in each case. The TGI in assay [8] and in [7] was greater than 100 µM each time.

Take `C/C(=N\NC(=O)CC(=O)N(C(=O)c1ccc(Cl)cc1)c1ccc(C)cc1)c1ccccc1O`: the TGI in assay [1], in assay [2], in assay [3], in assay [4], in assay [5] and in assay [6] was greater than 100 µM throughout. Further, the TGI in [8] and in [7] was greater than 100 µM throughout.

`CC(C)C1N2CCCCC2[C@@H]2c3[nH]c4ccccc4c3CCN12` (some centres not stated): the TGI in [1], in assay [2], in assay [3], in [4], in assay [5] and in [8] was greater than 100 µM in each case. The same molecule returned a TGI in [7] greater than 100 µM.

Turning to `O=c1c2c(c1=O)-c1ccccc1CN2`, the TGI in assay [1], in assay [2], in [3], in assay [4], in assay [5] and in [6] was greater than 100 µM throughout. Moreover, the TGI in [8] and in assay [7] was greater than 100 µM throughout.

With `CCOC(=O)C(C(O)c1ccc([N+](=O)[O-])cc1)P(=O)(OCC)OCC` (configuration not stated), the TGI in assay [1], in [3], in [4], in assay [5], in assay [6] and in assay [8] was greater than 100 µM each time. The TGI in assay [7] was greater than 100 µM.

As for `CC(=O)O[C@H]1CC2C=CC3C(CCC31)O2` (some centres not stated), the TGI in [1], in assay [2], in assay [3], in [4], in assay [5] and in assay [8] was greater than 100 µM each time. Besides, the TGI in [7] was greater than 100 µM.

In the case of `CCN(CC)CCn1c2ccccc2c(=O)c2c(OC)ccc(OC)c21`, the TGI in assay [1], in assay [3], in [4], in [5], in [6] and in assay [8] was greater than 100 µM in each case.

Turning to `COC(=O)/C(=N\NC(N)=O)C(C(=O)C=C(C)C)C(=O)C(=O)Nc1ccc(Cl)c(Cl)c1` (configuration not stated), the TGI in assay [1], in [2], in assay [3], in [4], in assay [5] and in assay [6] was greater than 100 µM in each case. The TGI in [8] and in assay [7] was greater than 100 µM throughout.
